In patent US8173695B2, “Kappa selective opioid receptor antagonist” (Eli Lilly and Company, priority 2008, dated 2012):
Where “and” joins values, the source holds several entries; their conditions need not be identical. Equal entries are not always repeated. Where two headings read alike, the source gives them in different places.

Columns and labels:
Sprague Dawley rats [1] = assay: Prepulse inhibition, reversal of morphine induced disruption of PPI; format: in vivo, rat
[2] = molecular target: T1, kappa receptors (striatum) (Rattus norvegicus, UniProt P34975); assay: Opioid receptor occupancy (RO) in rat brain, tracer GR103545; format: in vivo; conditions: 5.5 hrs following oral administration
T1 construct: dose-dependent level of kappa receptor occupancy in the striatum; from tissue; host or cells: striatum of living Sprague Dawley rats
T1 sequence (P34975 whole entry): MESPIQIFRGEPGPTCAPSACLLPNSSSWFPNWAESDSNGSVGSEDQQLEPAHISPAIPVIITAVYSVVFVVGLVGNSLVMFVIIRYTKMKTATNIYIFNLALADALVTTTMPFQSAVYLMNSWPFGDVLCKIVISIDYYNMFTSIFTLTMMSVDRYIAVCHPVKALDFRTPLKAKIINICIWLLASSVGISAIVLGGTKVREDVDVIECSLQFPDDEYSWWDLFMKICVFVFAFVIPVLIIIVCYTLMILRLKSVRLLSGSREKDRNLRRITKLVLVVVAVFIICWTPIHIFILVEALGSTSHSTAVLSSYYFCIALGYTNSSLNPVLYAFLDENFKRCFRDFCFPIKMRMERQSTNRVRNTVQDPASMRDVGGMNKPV

[3] = molecular target: T2, delta receptors (striatum) (Rattus norvegicus, UniProt P33533); assay: Opioid receptor occupancy (RO) in rat brain, tracer naltriben; format: in vivo
T2 construct: from tissue; host or cells: striatum of living Sprague Dawley rats
T2 sequence (P33533 whole entry): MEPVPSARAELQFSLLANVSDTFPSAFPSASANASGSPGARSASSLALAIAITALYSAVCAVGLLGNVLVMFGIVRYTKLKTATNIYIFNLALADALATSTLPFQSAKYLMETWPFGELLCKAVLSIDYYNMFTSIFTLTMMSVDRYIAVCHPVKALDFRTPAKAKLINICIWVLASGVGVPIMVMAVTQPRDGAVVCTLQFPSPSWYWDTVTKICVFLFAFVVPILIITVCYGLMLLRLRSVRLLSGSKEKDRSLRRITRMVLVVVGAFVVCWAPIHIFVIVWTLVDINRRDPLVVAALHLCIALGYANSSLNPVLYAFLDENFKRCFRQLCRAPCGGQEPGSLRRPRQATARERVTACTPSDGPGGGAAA

[4] = Plasma exposure after oral dosing, LC/MS/MS; format: in vivo; conditions: male, Sprague Dawley (Harlan), rat plasma, read-out: Plasma Levels
Protocol: Male Harlan Sprague Dawley rats are treated with the compound of Example 1A of the present invention using a 3% lactic acid/water oral formulation at doses of […], 0.3, 1, 3, 10 and 30 mg/kg. […] The increasing levels of kappa receptor occupancy are driven by roughly proportional increases in plasma and brain exposure of the compound of Example 1A of the present invention up to a dose of 30 mg/kg.
Plasma exposure of Example 1A of the present invention in the rat following administration is determined from plasma isolated from trunk blood collected at the time of tissue collection for receptor occupancy. Levels of the compound of Example 1A are detected by LC/MS/MS (API 4000, MDS Sciex) and quantified from a standard curve of Example 1A prepared in vehicle treated rat plasma.

[5] = system: alcohol preferring (P) rats; assay: P rat 12 hr ethanol drinking; format: in vivo; conditions: p<0.05 versus vehicle
Protocol: The test animals are selectively-bred alcohol preferring (P) rats. These rats voluntarily consume more than 5 g/kg of ethanol per day and meet all of the perceived criteria for an animal model of alcoholism. They attain blood alcohol contents between 50-200 mg %; they will operant respond to obtain ethanol; they consume ethanol for pharmacological effects and not taste, smell or caloric properties; and they develop metabolic and physiological tolerance and eventually dependence with chronic ethanol access.
Female P rats are obtained from a breeding facility at the Indiana University Medical Center in Indianapolis, Ind., USA. Rats are individually housed in an environmentally controlled facility and maintained on a 12 hr light/dark cycle (lights off at 1500 hours).
All drugs are mixed fresh prior to use and administered in a volume of 1 mL/kg. […]
Following a 4-day acclimation to the colony, rats receive homecage access to a bottle of EtOH (10% v/v; Ancare, Bellmore, N.Y.) in addition to the standard bottle of water. […] Consumption of EtOH and water are monitored for approximately 6-9 months prior to drug testing. Food and fluid intake are measured via force transduction with a PC-controlled Drinking & Feeding Monitoring System (TSE Systems, Bad Homburg, Germany). Consumption of food, water, and 15% (v/v) EtOH are continuously monitored for 12 hrs following drug or vehicle administration. […]

Sprague Dawley rats [6] = assay: Prepulse inhibition, reversal of U69593 induced disruption of PPI; format: in vivo, rat
Male NIH-Swiss mice = assay: Mouse forced swim test; format: in vivo; conditions: for immobility in mouse forced swim test, Mean: 60 min
Text: This test evaluates the effect of test compound on mice mobility as a measure of antidepressant effect. The less immobility compared to vehicle, the more pronounced the antidepressant-like effect.
Male, NIH-Swiss mice (25-30 g) (Harlan Sprague-Dawley, Indianapolis, Ind., USA) are housed in a vivarium for at least one week prior to use with water and rodent chow freely available during this acclimation period. Animals are removed from the vivarium to the testing area in their home cages and allowed to adapt to the new environment for at least one hour before testing.
Mice are placed in clear plastic cylinders (diameter: 10 cm; height: 25 cm) filled with 6 cm of water (22-25° C.) for six minutes. The duration of immobility during the last four minutes of the six minutes test period is scored. A mouse is recorded as immobile when floating motionless or making only those movements necessary to keep its head above water.
The test compound is administered p.o. 1 hour prior to testing at 1.0 mg/kg, 3.0 mg/kg and 10.0 mg/kg, n of 8 per group in a vehicle of 5 ml of sterile water and 30 ml of diluted (10×) lactic acid. Imipramine is evaluated as a positive control, 15 mg/kg: p, 30 min. prior to testing n of 4.
A second study is carried out evaluating 1 and 3 mg/kg doses of the compound of Example 1A alone and in combination with 5 mg/kg of imipramine. Imipramine alone is evaluated at 5 and 15 mg/kg doses and a vehicle control is included in the study. For the combination studies, the compound of Example 1A is administered p.o. 30 minutes prior to administration of imipramine i.p. and the test initiated 30 minutes following imipramine administration. An n of 8 per group is evaluated for all groups. For the evaluations of the compound of Example 1A alone, testing is initiated 60 minutes following administration and testing of imipramine only treated animals is initiated 30 minutes following administration.

Male Fischer F-344 rats = assay: Stress-induced hyperthermia (in rat); format: in vivo; conditions: for stress-induced hyperthermia (T2−T1): in °C
mu receptors (striatum) = molecular target: T3, mu receptors (striatum) (Rattus norvegicus, UniProt P33535); assay: Opioid receptor occupancy (RO) in rat brain, tracer naltrexone; format: in vivo
T3 construct: from tissue; host or cells: striatum of living Sprague Dawley rats
T3 sequence (P33535 whole entry): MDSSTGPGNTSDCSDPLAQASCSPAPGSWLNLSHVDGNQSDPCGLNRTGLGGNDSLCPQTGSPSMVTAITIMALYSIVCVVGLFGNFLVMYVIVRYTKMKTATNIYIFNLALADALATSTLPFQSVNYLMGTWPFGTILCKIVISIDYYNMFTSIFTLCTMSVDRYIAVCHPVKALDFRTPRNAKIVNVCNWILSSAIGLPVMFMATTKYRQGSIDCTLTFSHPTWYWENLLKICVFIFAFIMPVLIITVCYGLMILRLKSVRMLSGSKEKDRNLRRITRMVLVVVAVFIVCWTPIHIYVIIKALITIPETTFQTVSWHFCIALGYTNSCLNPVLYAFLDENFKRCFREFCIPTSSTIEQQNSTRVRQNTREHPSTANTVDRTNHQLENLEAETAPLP

[7] = Study 1, 1, 3 and 10 mg/kg p.o.

Cc1cc(C)cc([C@@H]2CCCN2Cc2ccc(Oc3ccc(C(N)=O)cc3F)cc2)c1 (single isomer, unassigned) [Example 1A]
% Inhibition (PPI), individual rats (Sprague Dawley rats [1]; 10 mg/kg Example 1A p.o./20 mg/kg morphine sc): 42.77% and 21.98% and 40.70% and 0.18% and 21.00% and 21.21% and 50.34% and 26.48% and 18.04% and 21.07% and 29.49% and 50.16% and 18.66% and 63.46% | % Inhibition (PPI), individual rats (Sprague Dawley rats [1]; 30 mg/kg Example 1A p.o./20 mg/kg morphine sc): 30.93% and 6.85% and 16.56% and 54.32% and 18.94% and 45.40% and 42.78% and 46.29% and 39.26% and 20.35% and 40.02% and 8.61% and 57.12% and 41.32% | reversal of sensory motor gating deficits induced by the Mu agonist morphine (Sprague Dawley rats [1]; rats, Table 7): can reverse | ED50 [2]: 0.45 mg/kg | ED50 ([3]; oral): > 30 mg/kg | delta receptor occupancy ([3]; oral doses up to 30 mg/kg): no significant occupancy | concentration at 5.5 h ([4]; 0.1 mg/kg, oral dose .1): 1.17 ng/g | concentration at 5.5 h ([4]; 0.3 mg/kg, oral dose .3): 2.27 ng/g | concentration at 5.5 h ([4]; 1 mg/kg, oral dose 1): 4.63 ng/g | concentration at 5.5 h ([4]; 3 mg/kg, oral dose 3): 15.4 ng/g | concentration at 5.5 h ([4]; 10 mg/kg, oral dose 10): 65.2 ng/g | concentration at 5.5 h ([4]; 30 mg/kg, oral dose 30): 106 ng/g | amount of ethanol consumed ([5]; 1 mg/kg orally): decreased | amount of ethanol consumed ([5]; 3 mg/kg orally): decreased | % Inhibition (PPI), individual rats (Sprague Dawley rats [6]; 0.1 mg/kg Example 1A p.o./3.0 mg/kg U-69593 sc): 29.86% and 55.18% and 22.97% and 54.62% and 31.90% and 9.79% and 25.88% and 31.40% | % Inhibition (PPI), individual rats (Sprague Dawley rats [6]; 0.3 mg/kg Example 1A p.o./3.0 mg/kg U-69593 sc): 33.74% and −1.75% and 52.00% and 47.01% and 0.52% and 42.14% and 66.71% and 71.91% | % Inhibition (PPI), individual rats (Sprague Dawley rats [6]; 1.0 mg/kg Example 1A p.o./3.0 mg/kg U-69593 sc): 30.08% and 52.23% and 24.91% and 70.96% and 55.10% and 71.68% and 61.05% and 59.31% | reversal of sensory motor gating deficits induced by the Kappa agonist U-69593 (Sprague Dawley rats [6]; rats, Table 6): can reverse | immobility in mouse forced swim test, Mean (Male NIH-Swiss mice; Example 1A 1 mg/kg p.o.): 151.53 s | immobility in mouse forced swim test, Mean (Male NIH-Swiss mice; Example 1A 3 mg/kg p.o.): 172.02 s | antidepressant-like activity (immobility), in words (Male NIH-Swiss mice; first study, 10.0 mg/kg p.o. 1 hour prior to testing, p<0.05 versus vehicle, Dunnett's test): demonstrates antidepressant-like activity | stress-induced hyperthermia (T2−T1) (Male Fischer F-344 rats; Study 1, 1 mg/kg po, 60 min pretreatment, body temperature in degrees C.): 0.84±0.07 | stress-induced hyperthermia (T2−T1) (Male Fischer F-344 rats; Study 1, 3 mg/kg po, 60 min pretreatment): 0.80±0.10 | stress-induced hyperthermia (T2−T1) (Male Fischer F-344 rats; Study 1, 10 mg/kg po, 60 min pretreatment): 0.75±0.11 | baseline core body temperature (Male Fischer F-344 rats; [7]): not affected | reduction in stress-induced hyperthermia (T2−T1), in words (Male Fischer F-344 rats; [7]): dose-dependent, but non-significant, reduction | stress-induced hyperthermia (T2−T1) (Male Fischer F-344 rats; Study 2, 10 mg/kg Example 1A alone, po): 0.74±0.04 | baseline core body temperature (Male Fischer F-344 rats; Study 2, 1, 3 and 10 mg/kg p.o. together with 1 mg/kg chlordiazepoxide): not affected | reduction in stress-induced hyperthermia, in words (Male Fischer F-344 rats; Study 2, together with 1 mg/kg chlordiazepoxide, significant reduction p<0.05): increases the efficacy of a sub-threshold dose of chlordiazepoxide | ED50 (mu receptors (striatum); oral): > 30 mg/kg | mu receptor occupancy (mu receptors (striatum); oral doses up to 30 mg/kg): no significant occupancy
